Where two headings read alike, the source gives them in different places. Marks after values point to notes of the source that are not given here.
Assays:
HT29 cells = assay: Sulforhodamine B (SRB) anti-proliferation assay, HT29; assay type: cell-based
Procedure: (§1) Cytoxic effects were determined using the sulforhodamine B (SRB) assay. Briefly, 5000 viable cells were plated into 96-well plates and incubated overnight prior to exposure with different concentrations of drugs. Cells were exposed to increasing concentrations of everolimus (0–200 nM), SN38 (0–8 nM), and combinations of the two. Following a 72 hour incubation, media was removed and cells were fixed with cold 10% trichloroacetic acid for 30 minutes at 4° C. Cells were washed with water and stained with 0.4% SRB for 30 minutes at room temperature. Cells were washed again with 1% acetic acid and stain was solubilized with 10 mM tris at room temperature and read at an OD of 565 nm. […] The resulting Combination Index (CI) was used as a quantitative measure of the degree of interaction between different drugs. A CI value equal to 1 denotes additivity; CI greater than 1, antagonism; CI less than 1, synergism.

[1] = SN38, humans; cited from earlier work
HCT116 cells = assay: Sulforhodamine B (SRB) anti-proliferation assay, HCT116; assay type: cell-based
Procedure: as §1

[2] = Mouse pharmacokinetics of SN38 after irinotecan from the literature; assay type: in vivo; conditions: mice, irinotecan 10 mg/kg iv, estimated from literature data
Procedure: (§2) In vivo SN38 data was evaluated to define the dose of irinotecan to be used since it is the active metabolite of irinotecan and carboxylesterase conversion of irinotecan to SN38 varies between mice and humans. Based on human and mouse pharmacokinetic data gathered from literature data [27]–[30], [35]–[40], we selected a dose of 10 mg/kg of irinotecan to be administered intravenously once weekly (Table 2).

[3] = Human, cited from earlier work
p21 = assay: Western blot, p21 in CRC cell lines; assay type: cell-based; conditions: SN38 4 nM, 24 hours, HCT116 and HCT8 cells
Procedure: (§3) Cells were seeded into 6-well plates 24 hours prior to treatment with each drug alone or in combination for 24 hours. Cells were scraped into RIPA buffer containing protease inhibitors, EDTA, NaF, and sodium orthovanadate. Total protein was determined using the Pierce 660 nm Protein Assay (Pierce, Rockford, IL). Thirty micrograms of total protein was loaded onto a 4–12% gradient gel, electrophoresed and transferred to nitrocellulose using the iBlot system (Invitrogen, Carlsbad, CA). Membranes were blocked for one hour at room temperature with Licor Blocking Buffer (Licor, Lincoln, NE) prior to overnight incubation at 4°C with one of the following antibodies: pS6RP, tS6RP, pAKT, tAKT, pERK, tERK, p21, PARP, actin and α-tubulin (Cell Signaling, Beverly, MA). All antibodies were used at a 1∶1000 dilution except for pERK, which was used at 1∶2000. Following primary antibody incubation, blots were washed in TBS-Tween(0.1%), then incubated with the appropriate secondary antibody at 1∶15,000 (Licor, Lincoln, NE) for one hour at room temperature. After three additional washes, blots were developed using the Licor Odyssey (Licor, Lincoln, NE).

[4] = Irinotecan and SN-38 plasma PK model and simulations in mice; conditions: PK model parameter, fit to data of previous publications (37-39)
Text: The pharmacokinetic models used for everolimus and irinotecan and SN38 in the above equations can be found in Supplement B. Data used to fit the everolimus pharmacokinetics was obtained in the study presented here. In the above equations, for irinotecan treatments, SN38 concentration was used to determine the effect since it is the active agent. The data used to fit the irinotecan and SN38 pharmacokinetics was obtained from previous publications (37-39).
Irinotecan and SN-38 Plasma PK […]

HCT8 cells = assay: Sulforhodamine B (SRB) anti-proliferation assay, HCT8; assay type: cell-based; conditions: RAD (20 nM), SN38 (4 nM) or the combination of the two, Figure 2
Procedure: as §1

[5] = cited from earlier work; for AUC0→t: t = 6 h
cleaved PARP = assay: Western blot, cleaved PARP in CRC cell lines; assay type: cell-based
Procedure: as §3

[6] = Human pharmacokinetics of SN38 after irinotecan from the literature; assay type: in vivo; conditions: humans, irinotecan doses ranging from 125–350 mg/m^2, from literature data
Procedure: as §2

[7] = SN38, mice; cited from earlier work
HT29 tumors = assay: NMR-based metabolomics of HT29 tumors; assay type: in vivo, mice; conditions: end of study
Procedure: (§4) When HT29 and HCT116 tumors reached an average volume of ∼325 mm^3 animals were randomized into four treatment groups (n = 9–10 mice per group): (i) vehicles, (ii) 5 mg/kg everolimus (RAD) by oral gavage (PO) daily, (iii) 10 mg/kg irinotecan (IRI) once weekly by intravenous (iv) tail vein injection, and (iv) a combination of RAD and IRI. Everolimus, diluted in sterile water, and irinotecan, diluted in sterile 0.9% saline, were administered at 4 mL/kg. Animals were treated for 28 days. Tumor volumes and body weights were measured 2–3 times weekly. On day 28 of treatment 3–6 animals per group were sacrificed, approximately 24 hours following everolimus treatment, and tumors harvested for metabolomic analysis.
For metabolomic analysis, animals were fasted for 4 hours then received 250 mg/kg of [1-^13C] glucose (Cambridge Isotopes, Cambridge, MA) by IV injection 60 minutes prior to tumor harvesting. Snap-frozen tumor specimens underwent two-phase acid extraction procedure (using 8% perchloric acid) previously established and extensively published [19]–[22]. Further details may also be found in Supplement S1 (section SA.2.).

HT29 tumor xenografts = assay: Therapeutic study and tumor growth modeling, HT29 tumor xenografts; assay type: in vivo, mice
Procedure: (§5) For tumor bearing studies, cells were harvested and resuspended in a 1∶1 mixture of serum-free RPMI and Matrigel (BD Bioscience). One million cells were injected subcutaneously into each rear flank of mice. Tumor volumes, measured by digital calipers, were calculated by V (mm^3) = length x (width)^2 x 0.5236.
as §4
(§6) Data from the in vivo study was modeled to assess the therapeutic benefit of adding everolimus to irinotecan. The model used was similar to a previously published model for assessing combination therapy. Some modifications were made and details of the model can be found in Supplement S1 (section SA.3.) and Supplement S2. All modeling was performed on individual animal tumor volume data and modeled with SAAM II version 2.1. […]
(§7) are presented in Tables 1 and 2 in Supplement B. Individual fits of the model to the data can also be found in Supplement B. The average growth terms for each tumor type were then fixed at the average parameter value and used to determine the single agent effects (kx) of each compound by fitting the following equation: […] where cx(t) is the concentration of drug x with respect to time. Individual tumors were modeled and the average value of kx determined (Supplement B Tables 1 & 2) for each single agent treatment. This value was used to fit the following equation to the combination tumor growth data to determine the degree of interaction between the two drugs.
(§8) , the interaction term, was determined for each individual tumor for each tumor type and the data is presented in Table 2 in the main text and individual fits can be found in Supplement B.
(§9) We determined that values greater than 1.3 are synergistic, between 1.3 and 0.7 are additive, between 0.7 and 0 are less than additive, and negative values for are antagonistic. These ranges were selected based on the model fits. The CV% for the model fits ranged from 15 to 50 with an average CV% of approximately 30%. Therefore we assume an average variance of 30% making the additive range from 1.3 to 0.7 (1 + 30% and 1- 30%). […]

HCT116 tumor xenografts = assay: Therapeutic study and tumor growth modeling, HCT116 tumor xenografts; assay type: in vivo, mice
Procedure: as §5, §4, §6, §7, §8, §9

[8] = SN38 after irinotecan 125mg/m^2, 1.5 hr INF, ref 27
[9] = SN38 after irinotecan 125mg/m^2, 1.5 hr INF, ref 29
[10] = SN38 after irinotecan 340mg/m^2, 1.5 hr INF
[11] = SN38 after irinotecan 350mg/m^2, 1 hr INF, Week 4 PK with cetuximab
[12] = SN38 after irinotecan 350mg/m^2, 1 hr INF
[13] = SN38 after irinotecan 5mg/kg IV Bolus, Mouse
[14] = SN38 after irinotecan 10mg/kg IV Bolus, Mouse, ref 39
[15] = SN38 after irinotecan 20mg/kg IV Bolus, Mouse
[16] = SN38 after irinotecan 40mg/kg IV Bolus, Mouse

## CCc1c2c(nc3ccc(O)cc13)-c1cc3c(c(=O)n1C2)COC(=O)[C@]3(O)CC [SN38]
HT29 cells; HT29, RAD (20 nM), SN38 (4 nM) or the combination of the two, Figure 2
  %Growth Inhibition: 59%
HT29 cells; HT29 cells
  IC50: 3 nM
[1]
  plasma protein binding: 98%
HCT116 cells; HCT116, RAD (20 nM), SN38 (4 nM) or the combination of the two, Figure 2
  %Growth Inhibition: 23%
HCT116 cells; HCT116 cells
  IC50: > 300 nM
[2]
  AUCfree of SN38: 0.0075 to 0.0258 µg·h/mL
[3]; [8]
  AUC0→t: 229 ± 108 ng·h/mL
  Cmax: 26.3 ± 11.9 ng/mL
  t½: 10.4 ± 3.1 h
[3]; [9]
  AUC0→t: 228 ± 149 ng·h/mL
  Cmax: 27 ± 12 ng/mL
  t½: 28.5 h
[3]; SN38 after irinotecan 180mg/m^2, 1.5 hr INF, footnote a: Week 4 PK with cetuximab
  AUC0→t: 222–245 ^a ng·hr/mL
[3]; [10]
  AUC0→t: 474 ± 245 ng·h/mL
  Cmax: 56.0 ± 28.2 ng/mL
  t½: 21.0 ± 4.3 h
[3]; [11]
  AUC0→t: 609±531 ^a ng·hr/mL
  Cmax: 57±20 ^a ng/mL
  t½: 15±23 ^a hr
[3]; [12]
  AUC0→t: 931 ± 948 ng·h/mL
  Cmax: 88 ± 26 ng/mL
  t½: 23 ± 35 h
p21
  effect on p21: increase
[4]; K(0,3)SN38
  k(0,3): 4.67 h⁻¹
[4]; SN-38 central compartment
  V3: 2.7 L/kg
[4]
  k(3,4): 1.38 h⁻¹
  k(4,3): 5.22 h⁻¹
HCT8 cells
  %Growth Inhibition: 50%
[5]; [13]
  AUC0→∞: 279 ^c ng·hr/mL
  Cmax: 647 ng/mL
[5]; SN38 after irinotecan 10mg/kg IV Bolus, Mouse (row r13), estimated from graph in reference
  Cmax: 443–673 ^b ng/mL
[5]; SN38 after irinotecan 10mg/kg IV Bolus, Mouse (row r13)
  AUC0→∞: 533–1029 ^c ng·hr/mL
[5]; SN38 after irinotecan 10mg/kg IV Bolus, Mouse, estimated from graph in reference
  Cmax: 435–600 ^b ng/mL
[5]; SN38 after irinotecan 10mg/kg IV Bolus, Mouse, ref 36
  t½: 2.2 h
[5]; SN38 after irinotecan 10mg/kg IV Bolus, Mouse, ref 37
  AUC0→∞: 533–759 ^c ng·hr/mL
[5]; [14]
  AUC0→∞: 534 ^c ng·hr/mL
  Cmax: 443 ng/mL
[5]; SN38 after irinotecan 10mg/kg IV Bolus, Mouse
  AUC0→t: 410±60 (t = 6 h) ng·hr/mL
[5]; [15]
  AUC0→t: 710±240 (t = 6 h) ng·hr/mL
  t½: 3.0 h
[5]; [16]
  AUC0→t: 1080±110 (t = 6 h) ng·hr/mL
  t½: 3.4 h
Cleaved PARP; SN38 treated HCT8 cells
  cleaved PARP (MW 89): A small amount
Cleaved PARP; SN38 treated HT29 or HCT116 cells
  cleaved PARP (MW 89): not
[6]
  AUCfree of SN38: 0.0044 to 0.0186 µg·h/mL
[7]
  plasma protein binding: 96.6–98.6%

## CCc1c2c(nc3ccc(OC(=O)N4CCC(N5CCCCC5)CC4)cc13)-c1cc3c(c(=O)n1C2)COC(=O)[C@]3(O)CC [Irinotecan]
HT29 tumors
  effect on tumor lipids: accumulation of lipids
HT29 tumor xenografts; HT29 (BRAF and PIK3CA mutant), IRI, SN38 concentration used in the model
  k1 (SD), single agent effect: 0.0092 (0.0023) mL/ng*day-1
HT29 tumor xenografts; HT29 xenografts, 5 mg/kg everolimus PO daily, 10 mg/kg irinotecan iv once weekly, or combination, 28 days
  average tumor growth inhibition, TGI: 39%
HCT116 tumor xenografts; HCT116 (KRAS and PIK3CA mutant), IRI, SN38 concentration used in the model
  k1 (SD), single agent effect: 0.0149 (0.0086) mL/ng*day-1
HCT116 tumor xenografts; HCT116 xenografts, 5 mg/kg everolimus PO daily, 10 mg/kg irinotecan iv once weekly, or combination, 28 days
  average tumor growth inhibition, TGI: 17%
[4]; K(0,1)IRI
  k(0,1): 0.25 h⁻¹
[4]; compartment 1 (irinotecan) to 3 (SN-38)
  k(3,1): 1.91 h⁻¹
[4]; irinotecan central compartment, Dose = 10 mg/kg
  V1: 2.8 L/kg
[4]
  k(1,2): 1.15 h⁻¹
  k(2,1): 0.87 h⁻¹
